Measurements published in ChEMBL document CHEMBL4177674, “Cyclotides, a versatile ultrastable micro-protein scaffold for biotechnological applications” (Bioorg Med Chem Lett, 2017).
Bridge positions count the residues as written; N and C are the ends. Peptide text beside a SMILES is read from it.

Biological target: T1, Serine protease 1 (Bos taurus, UniProt P00760)
T1 sequence (P00760 whole entry): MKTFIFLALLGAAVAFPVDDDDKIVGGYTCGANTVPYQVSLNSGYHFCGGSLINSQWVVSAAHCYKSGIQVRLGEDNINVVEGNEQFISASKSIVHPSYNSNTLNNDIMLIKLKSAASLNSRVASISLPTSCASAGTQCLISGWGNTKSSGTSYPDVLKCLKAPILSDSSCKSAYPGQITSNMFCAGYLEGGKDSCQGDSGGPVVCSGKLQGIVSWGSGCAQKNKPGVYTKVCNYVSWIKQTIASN
Experiment: Inhibition of bovine beta-trypsin incubated for 5 mins using BAPNA as substrate by colorimetric assay

Ki | Structure (SMILES)
0.02 to 0.03 nM | CC[C@H](C)[C@@H]1NC(=O)[C@H](C)NC(=O)[C@H](CO)NC(=O)[C@H](CO)NC(=O)[C@H]([C@@H](C)CC)NC(=O)[C@@H]2CSSC[C@@H]3NC(=O)[C@H](C(C)C)NC(=O)[C@H](CCCCN)NC(=O)[C@H](CO)NC(=O)[C@H](CCCCN)NC(=O)[C@@H]4CSSC[C@H](NC(=O)[C@H](CO)NC(=O)[C@H](CCC(=O)O)NC(=O)CNC(=O)[C@H](CSSC[C@H](NC(=O)CNC1=O)C(=O)N[C@@H](CO)C(=O)N4)NC(=O)[C@@H]1CCCN1C(=O)[C@H]([C@@H](C)CC)NC(=O)CNC(=O)[C@H](CC(N)=O)NC(=O)[C@H](CCCNC(=N)N)NC(=O)[C@H](Cc1ccc(O)cc1)NC3=O)C(=O)N[C@@H](C(C)C)C(=O)N[C@@H](Cc1c[nH]c3ccccc13)C(=O)N[C@@H]([C@@H](C)CC)C(=O)N1CCC[C@H]1C(=O)N2 (cyclo(AIGCSCKSKVCYRNGIPCGESCVWIPCISS); disulfide 4-18, 6-22, 11-27)
0.02 to 0.03 nM | CCC(C)[C@@H]1NC(=O)CNC(=O)[C@H](CC(N)=O)NC(=O)[C@H](Cc2ccc(O)cc2)NC(=O)[C@@H]2CSSC[C@@H]3NC(=O)[C@@H]4CCCN4C(=O)[C@H](C(C)CC)NC(=O)[C@H](Cc4ccc(O)cc4)NC(=O)[C@H](C(C)C)NC(=O)[C@@H]4CSSC[C@H](NC(=O)[C@H](CO)NC(=O)[C@H](CSSC[C@H](NC(=O)[C@@H]5CCCN5C1=O)C(=O)N[C@@H](C)C(=O)N[C@@H](CCC(=O)O)C(=O)N[C@@H](CO)C(=O)N4)NC(=O)CNC(=O)[C@H](CC(C)C)NC(=O)[C@H](CC(C)C)NC(=O)[C@H](C)NC(=O)[C@H]([C@@H](C)O)NC(=O)[C@H](C(C)C)NC(=O)[C@H]([C@@H](C)O)NC3=O)C(=O)N[C@@H](CO)C(=O)N[C@@H](CC(N)=O)C(=O)N[C@@H](CCCNC(=N)N)C(=O)N[C@@H](C(C)C)C(=O)N2 (stereo partly drawn)
0.02 to 0.03 nM | CC[C@H](C)[C@@H]1NC(=O)[C@@H]2CCCN2C(=O)[C@H](Cc2c[nH]c3ccccc23)NC(=O)[C@H]([C@@H](C)O)NC(=O)[C@@H]2CSSC[C@@H]3NC(=O)[C@H]([C@@H](C)O)NC(=O)[C@H](CCC(=O)O)NC(=O)CNC(=O)[C@@H]4CSSC[C@H](NC(=O)CNC(=O)[C@@H]5CCCN5C(=O)[C@H]([C@@H](C)O)NC(=O)[C@H](CC(N)=O)NC(=O)[C@H](CSSC[C@H](NC1=O)C(=O)N[C@@H]([C@@H](C)O)C(=O)N[C@@H](CCCNC(=N)N)C(=O)N[C@@H](CC(=O)O)C(=O)NCC(=O)N[C@@H](CC(C)C)C(=O)N1CCC[C@H]1C(=O)N[C@@H](C(C)C)C(=O)N4)NC(=O)[C@H]([C@@H](C)O)NC(=O)CNC(=O)CNC(=O)[C@H](Cc1ccccc1)NC3=O)C(=O)N[C@@H](CO)C(=O)N2 (cyclo(CFGGTCNTPGCSCTWPICTRDGLPVCGET); disulfide 1-13, 6-18, 11-26)
